Numbers after ± are expanded uncertainties.

This data set in a line: Boiling temperature at pressure P. The settings on record: Liquid, Ebulliometric method (Recirculating still).

As for `C=CC(C)(O)CCC=C(C)C` (centres undefined) [3,7-dimethyl-1,6-octadien-3-ol], the “Boiling temperature at pressure P” value is 133.2 ± 0.9 °C (13.33 kPa); 143.7 ± 0.9 °C (20 kPa); 152.1 ± 0.9 °C (26.66 kPa); 159 ± 0.8 °C (33.33 kPa); 164.7 ± 0.8 °C (40 kPa); 174.1 ± 0.8 °C (53.33 kPa). The “Boiling temperature at pressure P” value by setting is: (66.66 kPa) 182 ± 0.8 °C; (79.99 kPa) 188.5 ± 0.8 °C.
`CCO` [ethanol]: the “Boiling temperature at pressure P” value (13.33 kPa) came out at 35.7 ± 0.9 °C; the “Boiling temperature at pressure P” value (20 kPa) came to 43.1 ± 0.8 °C; the “Boiling temperature at pressure P” value (26.66 kPa) stood at 48.5 ± 0.8 °C; the “Boiling temperature at pressure P” value (33.33 kPa) worked out at 53 ± 0.8 °C; the “Boiling temperature at pressure P” value (40 kPa) is 57 ± 0.8 °C; the “Boiling temperature at pressure P” value (53.33 kPa) was 63.1 ± 0.8 °C. The “Boiling temperature at pressure P” value reads like this: (66.66 kPa) 68.2 ± 0.8 °C; (79.99 kPa) 72.5 ± 0.8 °C; (93.33 kPa) 76.2 ± 0.8 °C; (98.12 kPa) 77.7 ± 0.8 °C; (101.33 kPa) 78.2 ± 0.8 °C.
